We go through 1 compound from paper PMC10520499, “Next step in the development of mesoprogestins: the preclinical profile of EC313” (Frontiers in Endocrinology, 2023).

“And” between values parts separate entries of the source, which are not always exact repeats. Equal values may be shown once.

The subject of assay [1] is human uterine fibroid xenografts. Description: Human uterine fibroid xenografts in NOD-SCID mice. It is filed as in vivo. The settings on record: Part B; 0.01 mg/kg/day s.c. On the procedure:
Fibroids/Leiomyoma are one of the clinical target indications for the development of EC313. But, there are no very reliable pre-clinical models known at present. From all experimental approaches, the transplantation of human fibroid tissue into immunodeficient mice s.c. resembles the clinical situation most closely. UPA served as a reference compound. There were two study parts: A and B. Part A is already published ([2]). Human uterine fibroid samples (2x2x2 mm; weighting roughly 8 mg) were transplanted s.c. into NOD-SCID mice 3 weeks after ovariectomy. Simultaneously, the animals were supplemented s.c. with E2-releasing pellets (0.05 mg E2/90 days release). The treatment period over 60 days (5 treatment days a week) started immediately after transplantation. There was a sham control, an E2 control, two EC313-group, one Ulipristal (UA) group, and a combination of UPA+EC313 (Part A). […] The animals were sacrificed after a treatment period of 60 days. Graft weights were the primary endpoint (parts A and B); histological findings including immunostainings of the grafts were used as secondary endpoints (part A).
In general terms: In xenograft studies the graft and the host belong to different species.

Assay [2] has as its system immature female ovariectomized Wistar rats. Description: Uterus growth test in immature ovariectomized rats. The settings on record: daily s.c. doses of up to corresponding to 172 mg/kg body weight. In kind it is in vivo, rat. From the text: […] The vehicle served as the negative control. After treatment, the animals were sacrificed on day 4, and their vagina and uterine horns were dissected and weighed.

The target in assay [3] is T1, hGR-LBD purified recombinant protein (Homo sapiens, UniProt P04150).
T1 construct: purchased Thermo Fisher Scientific
T1 sequence (P04150 524-758 limits assumed): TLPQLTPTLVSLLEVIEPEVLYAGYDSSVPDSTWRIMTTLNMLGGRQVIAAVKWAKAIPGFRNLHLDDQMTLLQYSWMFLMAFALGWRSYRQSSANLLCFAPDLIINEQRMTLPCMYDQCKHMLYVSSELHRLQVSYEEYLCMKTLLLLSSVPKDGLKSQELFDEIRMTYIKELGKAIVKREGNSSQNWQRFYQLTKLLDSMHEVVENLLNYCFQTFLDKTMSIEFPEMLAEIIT
Description: Competitive binding, GR ligand binding domain. The protocol:
(§1) The study aimed to characterize the competitive binding profile of EC313 to relevant human nuclear receptors. For the assays, commercially available ‘ligand binding domain’ proteins were purchased (Thermo Fisher Scientific). In addition, the full-length receptor proteins were expressed in transfected HI insect cells using the `Bac-to-bac Baculovirus expression system´ (Thermo Fisher Scientific). Cellular lysates served as receptor preparation. Receptor protein preparations were incubated with tritiated reference ligands and EC313 or reference steroids at concentrations between 0.1 and 1000 nM for 2h at 4°C to reach equilibrium. Subsequently, unbound steroids were adsorbed to dextran-coated charcoal (Sigma Aldrich), separated by filtration, and the remaining radioactivity was quantified in a ß-counter (Perkin Elmer). Displacement curves were fitted using the GraphPad Prism 7 free version to obtain EC50 values. Relative binding affinity (RBA [%], (C50ref/C50test)*100) and the competition coefficient (C50test/C50ref) were used to describe the relative binding potency of EC313 compared to the reference ligands.

Assay [4] has as its target human PRA (Homo sapiens, UniProt P06401). As to the kind of experiment: PR-A transactivation (CHO, MMTV-LUC). It is filed as cell-based.
Description: Due to the existence of two isoforms of the PR receptor (PRA and PRB) and the fact that both of them control expression of a largely different set of genes, separate assays for each of them were carried out.
In order to develop the transfection assay, plasmids were generated and isolated. Plasmids included vectors with the coding sequences for the receptor as well as the reporter gene, respectively. The vector pcDNA3.1 coding sequence for the full length of human PRA and PRB (cDNA ORF clone in pcDNA3.1+/C-(K)-DYK) was used as an expression vector for PR isoform A and B, respectively. Vector pGL4.36 coding for the progesterone responsive element MMTV and firefly luciferase reporter vector [luc2P/Hygro] were used as reporter systems (pGL4.36-MMTV/LUC).
A sufficient transactivation signal was achieved using stable transfection for the human PRA and PRB receptors and transient transfection for the MMTV-luciferase reporter gene. Therefore, the first stable transfection with the receptor of interest was performed. Thus, 0.5x10^6 CHO cells per well were plated into 6-well plates in transfection medium w/o antibiotics (RPMI phenol-free, 10% FBS,2mM L-glutamine). When the cells reached 80% confluency, transfection with receptor using FuGENE 6 in Opti-MEM medium was accomplished according to the manufacturer’s instruction. After 48h of transfection, stably transfected cells were cultured in a growth medium containing an antibiotic (G418 500 µg/mL). Only cells with the resistance gene (resistance to G418), which had been transfected together with the DNA for PRA and PRB were able to grow in this medium. Consequently, growing cell clones were selected for further steps as stable transfectants. The CHO cells stably transfected with the expression of PRA or PRB were transiently transfected with promoter MMTV/LUC vectors. […]
After 24h incubation of cells with tested compounds, luciferase activity was measured using a VICTOR™ X Multilabel Plate Reader -Perkin Elmer.
Assay [5] addresses T2, human progesterone receptor ligand binding domain (PR-LBD) (Homo sapiens, UniProt P06401).
T2 construct: purchased Thermo Fisher Scientific
As to the kind of experiment: Competitive binding, PR ligand binding domain. The settings on record: compared to progesterone. On the procedure:
as §1

[6] abbreviates: GR-LBD, EC313 relative to Dexamethasone.

Sequence of human PRA (P06401 165-933): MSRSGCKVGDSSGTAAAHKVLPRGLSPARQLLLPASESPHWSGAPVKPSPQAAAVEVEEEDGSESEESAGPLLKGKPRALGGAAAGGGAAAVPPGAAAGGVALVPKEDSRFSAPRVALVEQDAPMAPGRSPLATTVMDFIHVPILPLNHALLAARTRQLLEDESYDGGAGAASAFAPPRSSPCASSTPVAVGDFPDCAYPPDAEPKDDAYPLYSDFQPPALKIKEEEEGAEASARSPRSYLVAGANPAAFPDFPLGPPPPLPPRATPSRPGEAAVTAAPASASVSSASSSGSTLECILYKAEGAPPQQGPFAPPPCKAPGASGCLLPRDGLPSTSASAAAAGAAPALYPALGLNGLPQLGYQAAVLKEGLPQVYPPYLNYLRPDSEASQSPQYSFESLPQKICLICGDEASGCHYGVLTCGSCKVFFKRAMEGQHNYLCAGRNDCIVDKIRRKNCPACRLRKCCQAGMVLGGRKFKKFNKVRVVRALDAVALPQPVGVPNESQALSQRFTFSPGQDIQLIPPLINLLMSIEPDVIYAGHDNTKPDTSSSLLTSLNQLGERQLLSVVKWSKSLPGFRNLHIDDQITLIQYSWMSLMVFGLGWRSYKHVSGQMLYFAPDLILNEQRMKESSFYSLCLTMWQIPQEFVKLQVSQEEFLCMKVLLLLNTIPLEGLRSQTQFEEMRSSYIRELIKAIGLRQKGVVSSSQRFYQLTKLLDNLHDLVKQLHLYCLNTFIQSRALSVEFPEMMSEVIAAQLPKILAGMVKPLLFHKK
T2 sequence (P06401 679-913 limits assumed): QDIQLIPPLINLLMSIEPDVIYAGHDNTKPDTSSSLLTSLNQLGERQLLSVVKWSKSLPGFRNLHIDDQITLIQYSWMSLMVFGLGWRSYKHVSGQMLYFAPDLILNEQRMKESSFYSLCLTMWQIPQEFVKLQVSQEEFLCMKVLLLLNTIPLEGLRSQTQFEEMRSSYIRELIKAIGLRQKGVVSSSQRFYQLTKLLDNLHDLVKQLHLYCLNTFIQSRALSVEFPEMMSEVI

One may read the IC50 as the point on the concentration scale where inhibition reaches its midpoint. The term EC50 denotes the concentration needed to bring the measured effect to its halfway point. The low end stands for greater potency, the high end for weaker potency. `C[C@]12C[C@H](c3ccc(-c4ccoc4)cc3)C3=C4CCC(=O)C=C4CC[C@H]3[C@@H]1CC[C@]21OCCC1=C(F)F` [EC313]: the “anti-fibroid activity at very low dose” value in assay [1] is “demonstrated”. The “estrogenic / anti-estrogenic activity (uterine horn and vagina weights)” value in assay [2] is listed as “neither estrogenic nor anti-estrogenic activity”. Moreover, the “Comp. Coefficient” value in assay [3] (setting [6]) is 2 and 1.7. Besides, the RBA in assay [3] (setting [6]) is on record as 60%. In addition, the IC50 is 19.1 ± 0.9 nM in assay [3] (hGR-LBD purified recombinant protein); 7.96 nM and 8 nM in assay [4] (Promegestone 35 nM, read-out: IC50, antagonism of Promegestone-induced reporter gene expression). In addition, in assay [4] (weak agonistic activity, in the range of the maximum concentration tested), the EC50 was about 1000 nM. Further, in assay [5], the “affinity to the ligand binding domain” value is listed as “the same as that of progesterone”.
